Measurements taken from patent EP0323416A2, “Phenylbenzylidene derivatives of 3-aminopropanesulfonic acid having anticonvulsant activity and pharmaceutical compositions containing same for the therapeutical treatment of epilepsy” (Sigma-Tau Industrie Farmaceutiche Riunite S.p.A., priority 1987, dated 1989).
Marks after values point to notes of the source that are not given here.

Tests used:
FeCl3-induced epilepsy = FeCl3-induced epilepsy model (EEG); assay type: in vivo, Male albino Wistar rats; conditions: 500 mg/kg oral 45 minutes following FeCl3 injection; Mann-Whitney's U test, P<0.05
Experimental: Male albino Wistar rats weighing 250-300g were used. The animals, anaesthetized with Nembutal Na (30 mg/kg i.p.), were stereotactically injected in their left ventral hippocampus one microliter of 0.55 M FeCl3 solution (AP=-3.2; L=5.0.; H=5.5 Pelhgrino and Cushman, 1971). Ten minutes following injection, recording electrodes were implanted: in both ventral hippocampi, two millimiters below the FeCl3 injection site (bipolars), bilaterally on the frontoparietal cortex (monopolars). recording of cerebral bioelectric activity, carried out with an EEG OTE-Biomedica PF 14e recorder, began about one hour following FeCl3 injection and lasted more than three hours on end.The epilepsy degree was assessed by calculating for each animal the number and duration in seconds of the seizures at 15-minute intervals during the whole recording span both in the hyppocampus where the injection had been performed and in the contralateral cortex. Moreover, an "index of epileptization" was calculated as the mean product of seizure number times the duration of the seizures in each time interval. […]
The results thus obtained show the antiepileptic activity of the compound assessed by examining the whole phenomenon as it evolves in time via the measure (carried out with the trapezoidal rule) of the area under the curve wherein the average number of seizures and their duration is plotted versus time.

[1] = test system: Sodium penicillin G-induced epilepsy; experiment: Sodium penicillin G-induced epilepsy (EEG); assay type: in vivo, Male albino Wistar rats; conditions: rats
Text: In this regard, see: Holmes, O. arid Lockton, J.W.: "Locally generated interictal epilectic spikes in the cortex cerebri of the rat". J.Physiol. (Lond.), 308 (1980) 75-76 P. Lokcton, J.W. and Holmes, O: "Site of penicillin-induced epilepsy in the cortex cerebri of the rat'. Brain research, 190 (1980) 301-304. Reichental, E. and Hocherman, S. : "The critical cortical area for development of penicillin-induced epilepsy". Electroenceph. Clin. Neurophysiol., 42 (1977) 248-251).
Male albino Wistar rats weighing 260-280 g were used in this test. Epilepsy was induced in these rats through the application of 5 mg of sodium penicillin G, power (Carlo Erba) on the left cortex cerebri. EEG recording (electroencephalograph OTE-Biomedica PF 14e) was carried out with cortical electrodes. Following a 15 minute recording period (basal), the animals were orally administered 250 mg/10 ml/kg of ST 505 suspended in 10% gum arabic. The controls were administered 10 ml/kg of 10% gum arabic.
The following parameters were taken into account: • a) numper of peaks of the EEG tracing in subsequent 15 minu te intervals, in an overall 5-hour recording period; and • b) number of fits with attendant average duration for each interval.
With regard to parameter a), the area under the curve was calculated wherein the number of peaks at different times and its accumulation function were plotted versus the observation time, thus obtaining five descriptive parameters: one which gives the measure (area) of the totale amount of epilepsy and four (shape indexes) describing the trends of the peaks during the time interval (five hours) under examination. These shape indexes were the percentile values at 50%, 60%, 70% and 800/0 of the accumulation function of the area versus time and represented, therefore, for each rat, a measure of the distribution of the epileptic fits in time.
The fits were studied with the same model as that utilized for the peaks.

auricular electroshock = experiment: Auricular electroshock (maximal electroshock death); assay type: in vivo, Male albino Swiss mice; conditions: oral in gum arabic 60 minutes before the electroshock, 10 mice
Experimental: Male albino Swiss mice weighing 22-24 g were used in this test. The electroshock conditions were the shock duration: 3 seconds; frequence: 100; pulse amplitude: 0.6 milliseconds, current intensity: 40 milliamperes. The compounds ST 505 and ST 512 suspended in gum arabic were orally administered 60 minutes before the electroshock.
The tests results which illustrate the number of animal preserved from death provoked by maximal electroshock are shown in the following Table 4.

[2] = test system: cardiazol-induced convulsions; experiment: Cardiazol-induced convulsions test in rats; assay type: in vivo, male albino Wistar rats; conditions: oral, 60 minutes before cardiazole 70 mg/10ml/kg i.p.
Experimental: The compound was also orally administered to male albino Wistar rats weighing 170-200 g (see table 3), at the dose equimolar to 100 mg 3-APS 60 minutes before cardiazole administration (70 mg/10ml/kg i.p.).

[3] = test system: strychnine-induced convulsions; experiment: Strychnine-induced convulsions test in mice; assay type: in vivo, male albino Swiss (Charles River) mice; conditions: oral; for Strychnine % Death rate / Strychnine Strong % Conv.: 60 minutes before convulsant, mice (Table 3)
Experimental: (§1) The doses of cardiazol, strychinine, bicuculline and picrotoxin (100 mg/10 ml/kg i.p., 0.73 mg/10 ml/kg s.c., 2.38 mg/10 ml/kg s.c. and 4.42 mg/10 ml/kg s.c. respectively) were chosen in such a way as to provoke death of 50% of the control animals.
(§2) The tests were carried out in male albino Swiss (Charles River) mice weighing 22-24 g which had been kept fasting for 18 hours.
(§3) 100/0 gum arabic suspensions of the compounds under examination were orally administered 60 minutes before the convulsant agent administration.
(§4) As reference substance, 3-APS (200-400-800 mg/10 ml/kg i.p.) was used.

male albino Swiss mice = experiment: Tolerability test, oral; assay type: in vivo; conditions: suspension in 10% gum arabic, dose of 3 g/kg, mice fasting for 18 hours
Experimental: The tolerability test was carried out on male albino Swiss mice weighing 22-24 g. The animals, which had been kept fasting for 18 hours, were orally administered a suspension in 10% gum arabic of the compounds ST 505 and ST 512.

[4] = test system: bicuculline-induced convulsions; experiment: Bicuculline-induced convulsions test in mice; assay type: in vivo, male albino Swiss (Charles River) mice; conditions: oral; for Bicuculline % Death rate / Bicuculline Strong % Conv.: 60 minutes before convulsant, mice (Table 3)
Experimental: as §1, §2, §3, §4

[5] = test system: picrotoxin-induced convulsions; experiment: Picrotoxin-induced convulsions test in mice; assay type: in vivo, male albino Swiss (Charles River) mice; conditions: oral; for Picrotoxin % Death rate / Picrotoxin Strong % Conv.: 60 minutes before convulsant, mice (Table 3)
Experimental: as §1, §2, §3, §4

[6] = test system: cardiazol-induced convulsions; experiment: Cardiazol-induced convulsions test in mice; assay type: in vivo, male albino Swiss (Charles River) mice; conditions: oral; for Cardiazol % Death rate / Cardiazol Strong % Conv.: 60 minutes before convulsant, mice (Table 3)
Experimental: as §1, §2, §3, §4

[7] = 100 mg/kg eq. 3-APS, versus control
[8] = 200 mg/kg eq. 3-APS, versus control

## NS(=O)(=O)CCCN=C(c1ccc(Cl)cc1)c1cc(F)ccc1O [ST 505, 3-[[a-(p-chlorophenyl)-5-fluoro-2-hydroxybenzylidene]amino]propanesulfonamide]
FeCl3-induced epilepsy
  area under the curve of average number of seizures and their duration versus time, compared with controls: statistically significant difference
[1]; 250 mg/10 ml/kg oral, versus controls, Mann Whitney's U test
  area of the peaks: significantly decreased
[1]; MEAN (S.E.), 250 mg/kg oral, 5-hour EEG recording
  Peak area: 52.9 (5.87)**
[1]; MEAN (S.E.), 250 mg/kg oral, percentile 50% of accumulation function
  Ist shape index: 8.5 (1.0)**
[1]; MEAN (S.E.), 250 mg/kg oral, percentile 60% of accumulation function
  2nd shape index: 9.8 (1.2)
[1]; MEAN (S.E.), 250 mg/kg oral, percentile 70% of accumulation function
  3rd shape index: 11.8 (1.4)
[1]; MEAN (S.E.), 250 mg/kg oral, percentile 80% of accumulation function
  4th shape index: 13.8 (1.4)
Auricular electroshock; dose 200 (unit not given)
  death rate: 4/10
Auricular electroshock; dose 400 (unit not given)
  death rate: 5/10
[2]; RAT, 100 mg/kg eq. 3 APS
  Cardiazol % Death rate: 60%
  Cardiazol Strong % Conv.: 60%
[2]; Wistar rats, dose equimolar to 100 mg 3-APS
  death rate reduction: 30%
[2]; Wistar rats, dose equimolar to 100 mg 3-APS, versus control
  first convulsion latency time: significant increase
[3]; 100 mg/kg eq. 3-APS
  reduction of strychnine-induced death rate: 20%
[3]; 100 mg/kg eq. 3 APS
  Strychnine % Death rate: 30%
  Strychnine Strong % Conv.: 60%
[3]; 200 mg/kg eq. 3-APS
  strychnine-induced convulsions and death: preserved all the animals
[3]; 200 mg/kg eq. 3 APS
  Strychnine % Death rate: 0%
  Strychnine Strong % Conv.: 0%
Male albino Swiss mice
  tolerability: well tolerated
[4]; 100 mg/kg eq. 3-APS
  reduction of bicuculline-induced death rate: 20%
[4]; [7]
  latency time of the bicuculline-induced death: significantly increased
  latency time of the bicuculline-induced first convulsion: significantly increased
[4]; 100 mg/kg eq. 3 APS
  Bicuculline % Death rate: 80%
  Bicuculline Strong % Conv.: 100%
[4]; [8]
  latency time of bicuculline-induced death: increased
  latency time of bicuculline-induced first convulsion: increased
[4]; 200 mg/kg eq. 3 APS
  Bicuculline % Death rate: 80%
  Bicuculline Strong % Conv.: 100%
[5]; 100 mg/kg eq. 3-APS
  picrotoxin response: did not change
[5]; 100 mg/kg eq. 3 APS
  Picrotoxin % Death rate: 90%
  Picrotoxin Strong % Conv.: 100%
[5]; [8]
  latency time of picrotoxin-induced first convulsion: increased
[5]; 200 mg/kg eq. 3 APS
  Picrotoxin % Death rate: 90%
  Picrotoxin Strong % Conv.: 100%
[6]; 100 mg/kg eq. 3-APS
  cardiazole response: did not change
[6]; 100 mg/kg eq. 3 APS
  Cardiazol % Death rate: 90%
  Cardiazol Strong % Conv.: 90%
[6]; [8]
  latency time of cardiazole-induced first convulsion: increased
[6]; 200 mg/kg eq. 3 APS
  Cardiazol % Death rate: 40%
  Cardiazol Strong % Conv.: 80%
